According to PubChem BioAssay AID330 (DTP/NCI, 2004):
Values joined by “and” are separate entries in the source; they are usually repeats but may differ in a detail not shown here. Equal values may be shown once. Inconclusive results and toxic doses are left out. The calls were made as follows: active = survival T/C of 150% or more; inactive = T/C below 125% in these data.

System: P388 leukemia ip, CD2F1 mice, survival T/C
Test: NCI In Vivo Anticancer Drug Screen. Data for tumor model P388 Leukemia (intraperitoneal) in CD2F1 (CDF1) mice
Conditions: endpoint: median survival time, higher = longer survival
How it was run: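 Mice carrying the transplanted tumor received test compound or vehicle. Survival was recorded in each group, and the value is the treated-group measurement divided by that of the vehicle-treated control group.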

[1] = dose: 50.0 mg/kg/injection, schedule: Q01DX005 (ip), vehicle: Klucel (hydroxypropylcellulose) (HPC)
[2] = dose: 100.0 mg/kg/injection, schedule: Q01DX005 (ip), vehicle: Klucel (hydroxypropylcellulose) (HPC)
[3] = dose: 12.5 mg/kg/injection, schedule: Q04DX002 (ip), vehicle: saline with Tween-80
[4] = dose: 25.0 mg/kg/injection, schedule: Q04DX002 (ip), vehicle: saline with Tween-80
[5] = dose: 50.0 mg/kg/injection, schedule: Q04DX002 (ip), vehicle: saline with Tween-80
[6] = dose: 60.0 mg/kg/injection, schedule: Q01DX005 (ip), vehicle: saline with Tween-80
[7] = dose: 200.0 mg/kg/injection, schedule: Q01DX005 (ip), vehicle: Klucel (hydroxypropylcellulose) (HPC)
[8] = dose: 50.0 mg/kg/injection, schedule: Q01DX005 (ip), vehicle: saline
[9] = dose: 100.0 mg/kg/injection, schedule: Q01DX005 (ip), vehicle: saline

Measured: T/C

CCN(CC)CCCC(C)NCC#CCNC(C)CCCN(CC)CC (stereo not given)
inactive: dose: 1.56 mg/kg/injection, schedule: Q01DX009 (ip), vehicle: water 105 % of control | dose: 3.13 mg/kg/injection, schedule: Q01DX009 (ip), vehicle: water 108 % of control | dose: 6.25 mg/kg/injection, schedule: Q01DX009 (ip), vehicle: water 104 % of control | dose: 12.5 mg/kg/injection, schedule: Q01DX009 (ip), vehicle: water 105 % of control

CCCCN(CCCC)CN(CCCC)CCCC
inactive: dose: 12.5 mg/kg/injection, schedule: Q01DX005 (ip), vehicle: saline with Tween-80 102 % of control | dose: 25.0 mg/kg/injection, schedule: Q01DX005 (ip), vehicle: saline with Tween-80 112 % of control | dose: 50.0 mg/kg/injection, schedule: Q01DX005 (ip), vehicle: saline with Tween-80 104 % of control and 114 % of control

Nc1ccc(-c2nc3ccccc3[nH]2)cc1
inactive: dose: 50.0 mg/kg/injection, schedule: Q04DX003 (ip), vehicle: saline 100 % of control | dose: 100.0 mg/kg/injection, schedule: Q04DX003 (ip), vehicle: saline 100 % of control | dose: 200.0 mg/kg/injection, schedule: Q04DX003 (ip), vehicle: saline 96 % of control

CC(=O)On1nnc2ccccc2c1=O
inactive: dose: 6.25 mg/kg/injection, schedule: Q01DX009 (ip), vehicle: distilled water + Tween-80 97 % of control | dose: 12.5 mg/kg/injection, schedule: Q01DX009 (ip), vehicle: distilled water + Tween-80 100 % of control | dose: 25.0 mg/kg/injection, schedule: Q01DX009 (ip), vehicle: distilled water + Tween-80 97 % of control

CCN(CC)C(C)(C)C(=O)/C=C/c1ccc(Cl)c(Cl)c1
inactive: dose: 60.0 mg/kg/injection, schedule: Q01DX005 (ip), vehicle: saline 102 % of control | dose: 120.0 mg/kg/injection, schedule: Q01DX005 (ip), vehicle: saline 101 % of control | dose: 240.0 mg/kg/injection, schedule: Q01DX005 (ip), vehicle: saline 100 % of control

Cc1c(Br)sc2ccc3ccccc3c12
inactive: dose: 100.0 mg/kg/injection, schedule: Q01DX001 (ip), vehicle: saline with Tween-80 103 % of control | dose: 200.0 mg/kg/injection, schedule: Q01DX001 (ip), vehicle: saline with Tween-80 106 % of control | dose: 400.0 mg/kg/injection, schedule: Q01DX001 (ip), vehicle: saline with Tween-80 103 % of control

COC(=O)c1nnn(-c2ccccc2)n1
inactive: dose: 25.0 mg/kg/injection, schedule: Q01DX005 (ip), vehicle: Klucel (hydroxypropylcellulose) (HPC) 99 % of control | [1] 101 % of control | [2] 101 % of control

Cn1c(=O)c2nnn(-c3ccccc3)c2n(C)c1=O
inactive: dose: 45.0 mg/kg/injection, schedule: Q01DX009 (ip), vehicle: saline with Tween-80 100 % of control | dose: 90.0 mg/kg/injection, schedule: Q01DX009 (ip), vehicle: saline with Tween-80 115 % of control | dose: 180.0 mg/kg/injection, schedule: Q01DX009 (ip), vehicle: saline with Tween-80 100 % of control

NC(=S)c1ccc(C2Nc3ccc(Cl)cc3N2)cc1 (stereo not given)
inactive: [3] 106 % of control | [4] 94 % of control | [5] 90 % of control

CC1(C)C2CCC(C2)C1OC(=O)c1ccccc1C(=O)O (stereo not given)
inactive: [6] 99 % of control | dose: 120.0 mg/kg/injection, schedule: Q01DX005 (ip), vehicle: saline with Tween-80 98 % of control | dose: 240.0 mg/kg/injection, schedule: Q01DX005 (ip), vehicle: saline with Tween-80 104 % of control

NNC(=O)CS(=O)(=O)NCc1ccccc1
inactive: [1] 100 % of control | [2] 99 % of control | [7] 97 % of control

Cc1nc2ncn(-c3ccccc3)c2c(=O)n1C
inactive: [1] 95 % of control | [2] 90 % of control | [7] 95 % of control

S=C([S][Sn]([c]1ccccc1)([c]1ccccc1)[c]1ccccc1)N1CCCCC1
inactive: dose: 3.12 mg/kg/injection, schedule: Q01DX009 (ip), vehicle: saline with Tween-80 99 % of control | dose: 6.25 mg/kg/injection, schedule: Q01DX009 (ip), vehicle: saline with Tween-80 104 % of control | dose: 12.5 mg/kg/injection, schedule: Q01DX009 (ip), vehicle: saline with Tween-80 107 % of control | dose: 25.0 mg/kg/injection, schedule: Q01DX009 (ip), vehicle: saline with Tween-80 112 % of control

COc1ccc2c(c1)OC(C)(C)C(c1ccccc1)=C2c1ccc(O)cc1
inactive: dose: 15.0 mg/kg/injection, schedule: Q01DX005 (ip), vehicle: saline with Tween-80 97 % of control | dose: 30.0 mg/kg/injection, schedule: Q01DX005 (ip), vehicle: saline with Tween-80 92 % of control | [6] 95 % of control

c1ccc(Sc2cccc3ccccc23)cc1
inactive: dose: 100.0 mg/kg/injection, schedule: Q04DX003 (ip), vehicle: saline with Tween-80 95 % of control | dose: 200.0 mg/kg/injection, schedule: Q04DX003 (ip), vehicle: saline with Tween-80 109 % of control | dose: 400.0 mg/kg/injection, schedule: Q04DX003 (ip), vehicle: saline with Tween-80 104 % of control

CCCCCCCCCC(=O)c1ccc(O)c(O)c1O
inactive: dose: 100.0 mg/kg/injection, schedule: Q01DX009 (ip), vehicle: saline 100 % of control | dose: 200.0 mg/kg/injection, schedule: Q01DX009 (ip), vehicle: saline 105 % of control

COc1ccc2c(c1O)N(C(C)=O)C1C3C(O)OCC=C4CN5CCC21C5CC43 (stereo not given)
inactive: dose: 4.5 mg/kg/injection, schedule: Q01DX009 (ip), vehicle: Klucel (hydroxypropylcellulose) (HPC) 100 % of control | dose: 5.0 mg/kg/injection, schedule: Q01DX009 (ip), vehicle: saline 116 % of control | dose: 9.0 mg/kg/injection, schedule: Q01DX009 (ip), vehicle: Klucel (hydroxypropylcellulose) (HPC) 103 % of control | dose: 10.0 mg/kg/injection, schedule: Q01DX009 (ip), vehicle: saline 111 % of control | dose: 18.0 mg/kg/injection, schedule: Q01DX009 (ip), vehicle: Klucel (hydroxypropylcellulose) (HPC) 101 % of control | dose: 20.0 mg/kg/injection, schedule: Q01DX009 (ip), vehicle: saline 118 % of control | dose: 36.0 mg/kg/injection, schedule: Q01DX009 (ip), vehicle: Klucel (hydroxypropylcellulose) (HPC) 110 % of control | dose: 72.0 mg/kg/injection, schedule: Q01DX009 (ip), vehicle: Klucel (hydroxypropylcellulose) (HPC) 104 % of control

COC1C=C(Cl)C(=O)C(C)O1 (stereo not given)
inactive: dose: 25.0 mg/kg/injection, schedule: Q04DX003 (ip), vehicle: Klucel (hydroxypropylcellulose) (HPC) 100 % of control | dose: 50.0 mg/kg/injection, schedule: Q04DX003 (ip), vehicle: Klucel (hydroxypropylcellulose) (HPC) 106 % of control | dose: 100.0 mg/kg/injection, schedule: Q04DX003 (ip), vehicle: Klucel (hydroxypropylcellulose) (HPC) 100 % of control

CCNC1(N(C)C)N=C(N(C)C)N=C(N(C)C)O1 (stereo not given)
inactive: [8] 96 % of control | [9] 96 % of control

[Cl][Pd][Cl].[NH-]C1CCCC2CCC[N-]C12 (stereo not given)
inactive: [3] 104 % of control | [4] 110 % of control | [5] 104 % of control

CC(C)C1=CC23CCC4C(C)(C(=O)O)CCCC4(C)C2CC1C(C(=O)NCCCN(C)C)C3C(=O)O (stereo not given)
inactive: dose: 60.0 mg/kg/injection, schedule: Q01DX005 (ip), vehicle: Klucel (hydroxypropylcellulose) (HPC) 95 % of control | dose: 120.0 mg/kg/injection, schedule: Q01DX005 (ip), vehicle: Klucel (hydroxypropylcellulose) (HPC) 95 % of control | dose: 240.0 mg/kg/injection, schedule: Q01DX005 (ip), vehicle: Klucel (hydroxypropylcellulose) (HPC) 93 % of control

CCOC(=O)c1csc(C2OC(COC(=O)c3ccccc3)C(OC(=O)c3ccccc3)C2OC(=O)c2ccccc2)n1 (stereo not given)
inactive: dose: 50.0 mg/kg/injection, schedule: Q01DX009 (ip), vehicle: saline with Tween-80 96 % of control | dose: 100.0 mg/kg/injection, schedule: Q01DX009 (ip), vehicle: saline with Tween-80 95 % of control | dose: 200.0 mg/kg/injection, schedule: Q01DX009 (ip), vehicle: saline with Tween-80 93 % of control

C#CCC(N)C(=O)O (stereo not given)
inactive: dose: 12.5 mg/kg/injection, schedule: Q01DX005 (ip), vehicle: saline 107 % of control | dose: 25.0 mg/kg/injection, schedule: Q01DX005 (ip), vehicle: saline 111 % of control | [8] 100 % of control and 106 % of control | [9] 108 % of control
